The source of these data is patent publication US11357857B2, “Excipient compounds for protein processing” (COMERA LIFE SCIENCES, INC., priority 2014, dated 2022).

Several values for one entry are separate records, joined by “and”; a condition that tells them apart may be missing. Equal entries are not always repeated. Structures can show the parent of a compound that is named as a salt. Where two headings read alike, the source gives them in different places.

Series [1] concerns bovine gamma globulin (BGG). As for the experimental part: Each buffer solution contained different excipient or combination of excipients as described in the table below. The viscosity of the solutions was measured as described in previous examples.
Series [2] relates to bovine gamma globulin (BGG). Nature of the series: Viscosity of 280 mg/mL BGG in histidine buffer pH 6 versus amount of arginine or caffeine added (Example 24). The format is physicochemical.
In series [3] the test system is bovine gamma globulin (BGG). The conditions noted are these: 280 mg/mL BGG, 20 mM histidine pH 6, 25° C.; Excipient A caffeine 15 mg/mL; no Excipient B.
For series [4], the system named is bevacizumab (AVASTIN®). Nature of the series: Viscosity of concentrated AVASTIN with and without caffeine, microVisc (Example 40). The conditions noted are these: for % Viscosity Reduction from Excipient: 10 mg/mL caffeine.
Protocol: The sample was concentrated in Amicon Ultra 4 centrifugal concentrator tubes (MWCO 30 kDa) at 3500 rpm. […] AVASTIN® stock solution was diluted with the excipient buffer then concentrated in Amicon Ultra 15 centrifugal concentrator tubes (MWCO 30 kDa). The concentration of the excipient samples was determined by Bradford assay and the viscosity was measured using the RheoSense microVisc.
Series [5] relates to bovine gamma globulin (BGG). Nature of the series: Normalized viscosity of 280 mg/mL BGG in 50 mM histidine HCl with primary/secondary excipient combinations (Example 10). The format is physicochemical. As for the experimental part:
The primary excipient compounds were selected from compounds having both anionic and aromatic functionality, as listed below in Table 5. The secondary excipient compounds were selected from compounds having either nonionic or cationic charge at pH 6 and either imidazoline or benzene rings, as listed below in Table 5. Formulations of these excipients were prepared in 50 mM histidine hydrochloride buffer solution for viscosity measurement in the following way. […] The individual primary or secondary excipient compounds were then dissolved in 50 mM histidine HCl.

Series [6] relates to bovine gamma globulin (BGG). Nature of the series: Viscosity of 280 mg/mL BGG in 20 mM histidine pH 6 with different molar caffeine concentrations, microVisc (Example 31). Format: physicochemical. How it is done:
The formulations for this Example were prepared in 20 mM histidine buffer for viscosity measurement in the following way.
The viscometer was equipped with an A-10 chip having a channel depth of 100 microns, and was operated at a shear rate of 250 l/s and 25° C. To measure viscosity, the test formulation was loaded into the viscometer, taking care to remove all air bubbles from the pipet. The pipet containing the loaded sample formulation was placed in the instrument and allowed to incubate at the measurement temperature for about five minutes. The instrument was then run until the channel was fully equilibrated with the test fluid, indicated by a stable viscosity reading, and then the viscosity recorded in centipoise.

Series [7] has as its system bovine gamma globulin (BGG). Nature of the series: Normalized viscosity of 280 mg/mL BGG in 20 mM histidine with dimethyl sulfone (Example 42). The format is physicochemical. How it is done: Such formulations were prepared in 20 mM histidine buffer for viscosity measurement in the following way. […].
Series [8] deals with T1, PEGylated BSA (1 PEG chain per BSA molecule) (Bos taurus, UniProt P02769).
T1 construct: purchased Aldrich A7906
Nature of the series: Viscosity of PEGylated BSA with 1 PEG chain per BSA with excipient, microVisc (Example 17). The conditions noted are these: excipient 40 mg/mL. The format is physicochemical. How it is done:
To a beaker was added 200 mL of a phosphate buffered saline (Aldrich Cat. #P4417) and 4 g of BSA (Aldrich Cat. #A7906) and mixed with a magnetic bar. Next 400 mg of methoxy polyethylene glycol maleimide, MW=5,000, (Aldrich Cat. #63187) was added. The reaction mixture was allowed to react overnight at room temperature. The following day, 20 drops of HCl 0.1 M were added to stop the reaction. […] The reaction mixture was placed in an Amicon centrifuge tube with a molecular weight cutoff (MWCO) of 30,000 and concentrated to a few milliliters. Next the sample was diluted 20 times with a histidine buffer, 50 mM at a pH of approximately 6, followed by concentrating until a high viscosity fluid was obtained.
The viscometer measurements were completed at ambient temperature.

For series [9], the target named is PEGylated lysozyme (Gallus gallus, UniProt P00698). The note with it: excipient 20 mg/mL.
Protocol: The solution was mixed by gently shaking and the viscosity was measured by a RheoSense microVisc equipped with an A10 channel (100 micron depth) at a shear rate of 500 sec−1. The viscometer measurements were completed at ambient temperature.
Series [10] deals with bovine gamma globulin (BGG). Nature of the series: Normalized viscosity of 280 mg/mL BGG in 20 mM histidine with local anesthetic excipients (Example 21). The note with it: no B. Format: physicochemical. From the text: The first excipient compound, Excipient A, was selected from a group of compounds having local anesthetic properties.
The nature of series [11]: Caffeine solubility testing with co-solutes at ambient temperature (Examples 32-33). The note with it: for Observation of caffeine dissolution: caffeine 80 mg/mL. How it is done: Prepared solutions were used either neat or diluted with deionized water.
A small magnetic stir bar was added to the vial, and the solution was allowed to mix vigorously on a stir plate for about 10 minutes.

In series [12] the test system is bovine gamma globulin (BGG). The conditions noted are these: excipient 50 mg/mL.
For series [13], the system named is bovine gamma globulin (BGG). Nature of the series: Normalized viscosity of 280 mg/mL BGG in distilled water with excipient combinations (Example 11). Format: physicochemical. The conditions noted are these: primary excipient 20 mg/mL, no secondary. How it is done:
The primary excipient compounds were selected from compounds having both anionic and aromatic functionality, as listed below in Table 6. The secondary excipient compounds were selected from compounds having either nonionic or cationic charge at pH 6 and either imidazoline or benzene rings, as listed below in Table 6. Formulations of these excipients were prepared in distilled water for viscosity measurement in the following way. […].

Chain of PEGylated lysozyme (P00698 19-147): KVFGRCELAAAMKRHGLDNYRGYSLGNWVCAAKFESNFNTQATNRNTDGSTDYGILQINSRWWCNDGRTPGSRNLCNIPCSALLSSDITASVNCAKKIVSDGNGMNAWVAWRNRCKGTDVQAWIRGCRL
T1 sequence (P02769 25-607): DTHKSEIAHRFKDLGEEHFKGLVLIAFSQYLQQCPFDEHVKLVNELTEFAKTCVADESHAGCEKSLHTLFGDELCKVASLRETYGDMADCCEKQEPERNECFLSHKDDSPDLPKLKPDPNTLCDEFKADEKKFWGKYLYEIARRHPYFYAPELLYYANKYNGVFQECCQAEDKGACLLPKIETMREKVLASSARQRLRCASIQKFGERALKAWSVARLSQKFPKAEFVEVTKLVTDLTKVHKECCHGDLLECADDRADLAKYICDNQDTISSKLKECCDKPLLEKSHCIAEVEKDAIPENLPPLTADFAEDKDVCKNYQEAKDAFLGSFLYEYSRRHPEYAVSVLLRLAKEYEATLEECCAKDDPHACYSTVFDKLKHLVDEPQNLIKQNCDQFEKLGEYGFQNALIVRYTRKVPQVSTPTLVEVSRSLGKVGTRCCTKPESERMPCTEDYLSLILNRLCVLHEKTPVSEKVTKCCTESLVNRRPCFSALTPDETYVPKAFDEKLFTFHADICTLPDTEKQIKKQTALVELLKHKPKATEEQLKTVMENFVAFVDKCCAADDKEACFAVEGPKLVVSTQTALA

Consider `N=C(N)NCCC[C@H](N)C(=O)O` [Arginine], for which the Viscosity in series [1] (arginine 25 mg/ml) was found to be 76.7 cP; in series [2] (arginine added 53 mg/mL) it was 40.9 cP; in series [2] (arginine added 79 mg/mL) it was 46.1 cP; in [2] (arginine added 105 mg/mL), 47.8 cP; in series [2] (arginine added 132 mg/mL), 49.0 cP; in series [2] (arginine added 158 mg/mL), 48.0 cP. Further, the Viscosity in series [2] (arginine added 174 mg/mL) turned out to be 50.3 cP; in [2] (arginine added 211 mg/mL) it was 51.4 cP. Besides, the “Viscosity Reduction” value came out at 41% in series [1] (arginine 25 mg/ml); 48% in series [2] (arginine added 53 mg/mL); 42% in series [2] (arginine added 79 mg/mL); 40% in [2] (arginine added 105 mg/mL); 38% in series [2] (arginine added 132 mg/mL); 39% in [2] (arginine added 158 mg/mL). Besides, the Viscosity Reduction in series [2] (arginine added 174 mg/mL) is on record as 36%; in series [2] (arginine added 211 mg/mL), 35%.
Take `Cn1c(=O)c2c(ncn2C)n(C)c1=O` [Caffeine]: the “Normalized Viscosity” value in [3] is 0.77; in series [5] (no primary, secondary excipient 10 mg/mL), 0.73; in [6] (caffeine 5 mM), 0.81; in [6] (caffeine 10 mM), 0.84; in series [6] (caffeine 20 mM), 0.92; in [6] (caffeine 30 mM) it was 0.76. The “Normalized Viscosity” value in series [6] (caffeine 40 mM) is reported as 0.78; in series [6] (caffeine 50 mM) it was 0.78; in [6] (caffeine 60 mM), 0.69; in [6] (caffeine 70 mM) it was 0.60; in series [6] (caffeine 80 mM), 0.60. For the same compound, the “Viscosity with 10 mg/mL added caffeine excipient” value in series [4] (concentration 190 mg/mL) turned out to be 13 cP. The “% Viscosity Reduction from Excipient” value in series [4] (concentration 190 mg/mL) came to 36%; in [4] (concentration 266 mg/mL), 62%. Also, the Viscosity in [1] (caffeine 10 mg/ml) was found to be 87.9 cP; in series [2] (caffeine added 10 mg/mL) it was 60 cP; in series [2] (caffeine added 15 mg/mL) it was 62 cP; in [2] (caffeine added 22 mg/mL), 50 cP; in series [6] (caffeine 5 mM), 67 cP; in [6] (caffeine 10 mM), 70 cP. Also, the Viscosity in series [6] (caffeine 20 mM) is listed as 77 cP; in series [6] (caffeine 30 mM), 63 cP; in series [6] (caffeine 40 mM), 65 cP; in series [6] (caffeine 50 mM) it was 65 cP; in [6] (caffeine 60 mM) it was 57 cP; in [6] (caffeine 70 mM), 50 cP. In series [6] (caffeine 80 mM), this compound registered a Viscosity of 50 cP. Moreover, the “Viscosity Reduction” value in series [1] (caffeine 10 mg/ml) came out at 33%; in [2] (caffeine added 10 mg/mL) it was 31%; in series [2] (caffeine added 15 mg/mL), 23%; in [2] (caffeine added 22 mg/mL), 45%.
For `CS(C)(=O)=O` [Dimethyl sulfone], the Normalized Viscosity in series [7] (dimethyl sulfone 15 mg/mL) was 0.92; in [7] (dimethyl sulfone 30 mg/mL), 0.71 and 0.72; in series [7] (dimethyl sulfone 50 mg/mL), 0.71.
Take `CC(=O)[O-].[K+]` [K acetate, potassium acetate]: in series [8], the Viscosity was found to be 89.5 cP and the “Viscosity Reduction” value turned out to be 60%. In addition, in series [9], the Viscosity is given as 22.6 cP and the “Viscosity Reduction” value is reported as 8%.
Consider `CCN(CC)CC(=O)Nc1c(C)cccc1C` [Lidocaine], for which the “Normalized Viscosity” value came out at 0.74 in series [10] (excipient A 23 mg/mL) and 0.73 in series [10] (excipient A 45 mg/mL).
For `CCN(CC)CCOC(=O)c1ccc(N)cc1` [Procaine HCl], the “Observation of caffeine dissolution” value in series [11] (co-solute 30 mg/mL) and in series [11] (co-solute 40 mg/mL) was “DND” each time. In addition, the “Dissolution of caffeine enabled relative to reported solubility limit” value in series [11] (co-solute in water, ambient temperature (about 23 C)) is listed as “at least about four times”. In addition, in series [12], the “Viscosity Reduction” value worked out at 47%. In addition, the “Normalized Viscosity” value in series [10] (excipient A 40 mg/mL) was determined as 0.64.
Consider `O=C(O)c1ccccc1O` [Salicylic Acid], for which the “Normalized Viscosity” value in series [5] (primary excipient 30 mg/mL, no secondary) is reported as 0.79; in [13] it was 0.96.
